Molecules are shown by their SMILES.

The test deals with Plasmodium berghei. The experiment in a line: Luciferase/luciferin-expressing antifolate-resistant parasites were used to infect a culture of HepG2 cells that were pre-incubated with compounds. Infected hepatocytes emit light due to the luciferase reaction. Assay results are presented as the percent inhibition of light emission compared to control. […]. The format is functional. Particulars: sporozoite; for IC90: read-out: LUCIFERASE INFECTION ASSAY - IC90.

Setting [1] is: read-out: LUCIFERASE INFECTION ASSAY - IC50.

A word on the IC50: it is the point on the concentration scale where inhibition reaches its midpoint. The term IC90 denotes the concentration at which the effect reaches the 90% level. As to `OCc1ccc(-c2cnc3ccc(NCc4ccc(F)cc4)nn23)cc1`, the IC90 turned out to be 1.24 µM. Also, for the setting “HEPG2TOX_HILL_SLOPE 0.86, HEPG2TOX_R_SQUARED 0.883, PBLUC_HILL_SLOPE 13, PBLUC_R_SQUARED 0.726, read-out: LUCIFERASE INFECTION ASSAY - IC50”, the IC50 was 1.05 µM.
Take `O=C(O)c1cccc2cccc([S+]([O-])c3ccccc3CO)c12` (stereo unspecified): the IC90 was above 10.1 µM. The IC50 (FFLUC_HILL_SLOPE 17.8, FFLUC_R_SQUARED 0.335, read-out: LUCIFERASE INFECTION ASSAY - IC50) was above 10.1 µM.
`CCOC(=O)c1c(C)[nH]c(C(=O)Nc2nc(-c3ccc(C4CCCCC4)cc3)cs2)c1C`: the IC90 was determined as 9.4 µM. Besides, under “HEPG2TOX_HILL_SLOPE 12.2, HEPG2TOX_R_SQUARED 0.959, PBLUC_HILL_SLOPE 12.5, PBLUC_R_SQUARED 0.559, read-out: LUCIFERASE INFECTION ASSAY - IC50”, the IC50 is 7.88 µM.
As to `CC1(C)C2CCC1(C)C(NC(=O)COc1ccc(Br)cc1Cl)C2` (stereo unspecified), the IC90 is 8.17 µM. Besides, the IC50 (HEPG2TOX_HILL_SLOPE 4.37, HEPG2TOX_R_SQUARED 0.564, PBLUC_HILL_SLOPE 4.64, PBLUC_R_SQUARED 0.01, read-out: LUCIFERASE INFECTION ASSAY - IC50) was 5.08 µM.
With `Cc1nn(C)c(C)c1CC(=O)Nc1ccc(-n2cnc3ccccc32)cc1`, the IC90 was above 10 µM. Besides, the IC50 (HEPG2TOX_HILL_SLOPE 0.764, HEPG2TOX_R_SQUARED 0.908, PBLUC_HILL_SLOPE 0.735, PBLUC_R_SQUARED 0.618, read-out: LUCIFERASE INFECTION ASSAY - IC50) amounted to 1.31 µM.
Take `COc1ccc(CN2C(=O)N(CC(C)C)C3(CCN(Cc4c[nH]c5ccccc45)CC3)C2=O)cc1`: the IC90 was above 6.95 µM. In addition, the IC50 under setting [1] was found to be 6.77 µM.
As to `CC(C)c1cc(C(C)C)c(S(=O)(=O)Nc2ccc(O)cc2)c(C(C)C)c1`, the concentration for an effect of 90% (IC90) was 3.98 µM. The IC50 (FFLUC_HILL_SLOPE 2.79, FFLUC_R_SQUARED 0.606, PBLUC_HILL_SLOPE 11.9, 14.6, PBLUC_R_SQUARED 0.380, 0.737, read-out: LUCIFERASE INFECTION ASSAY - IC50) came out at 3.36 µM.
Regarding `CCN(C(=O)COc1ccc(-c2ccccc2)cc1)c1cccc2ccccc12`, the IC90 is above 10 µM. Moreover, under setting [1], the IC50 is above 10 µM.
On to `CCCCn1c(SCc2cc(=O)oc3cc(C)c(C(C)C)cc23)nc2cc(S(N)(=O)=O)ccc21`, for which the IC90 was above 10 µM. Also, the IC50 under setting [1] is above 10 µM.
Turning to `COc1ccc(-c2noc(CCCCCNC(=O)c3ccc(-n4cnnn4)cc3)n2)cc1`, the IC90 was above 10 µM. Under setting [1], the IC50 was above 10 µM.
For `CNc1nc2cnc(-c3ccc(F)cc3)cc2n1Cc1ccc(OC)c(OC)c1`, the IC90 was 3.97 µM. Also, the IC50 (PBLUC_HILL_SLOPE 14.4, PBLUC_R_SQUARED 0.339, read-out: LUCIFERASE INFECTION ASSAY - IC50) came out at 3.41 µM.
Take `O=C(Nc1ccc(Cl)cc1)Nc1nc(-c2cc(Cl)sc2Cl)cs1`: the 90% effect concentration (IC90) came to 7.79 µM. The concentration for half-maximal inhibition (IC50) (FFLUC_HILL_SLOPE 2.44, FFLUC_R_SQUARED 0.604, PBLUC_HILL_SLOPE 2.52, PBLUC_R_SQUARED 0.549, read-out: LUCIFERASE INFECTION ASSAY - IC50) worked out at 3.26 µM.
As for `CCN(c1ccccc1)S(=O)(=O)c1ccc(NNC(=O)Nc2cccc3ccccc23)nc1`, the IC90 is above 10 µM. Moreover, the IC50 under setting [1] worked out at 8.75 µM.
The like results for `COc1ccc2oc(C(=O)Nc3nnc(C(C)C)s3)c(C)c2c1` were, in that order, above 10 µM and 4.49 µM.
For the compound `O=C(Cn1cnc2sc(-c3ccccc3)cc2c1=O)Nc1nc(CN2CCCCC2)cs1`, the IC90 is above 10 µM. Besides, the IC50 under setting [1] was above 10 µM.
As for `Cc1nn(Cc2n[nH]c(=S)o2)c(C)c1Br`, the IC90 is above 11.4 µM. Besides, under setting [1], the IC50 was above 11.4 µM.
For `Nc1nc(C2COc3ccccc3O2)ncc1S(=O)(=O)c1ccc(Cl)cc1` (stereo unspecified), the concentration for an effect of 90% (IC90) is above 8.17 µM. Further, the half-inhibitory concentration (IC50) (PBLUC_HILL_SLOPE 11.1, PBLUC_R_SQUARED 0.295, read-out: LUCIFERASE INFECTION ASSAY - IC50) is 7.39 µM.
On to `CCOc1ccc(C(C)=O)cc1CSc1nc2ccccc2c(=O)n1C(C)COC` (stereo unspecified), for which the concentration for an effect of 90% (IC90) came to 3.98 µM. Besides, the IC50 (HEPG2TOX_HILL_SLOPE 2.93, HEPG2TOX_R_SQUARED 0.419, PBLUC_HILL_SLOPE 1.84, PBLUC_R_SQUARED 0.699, read-out: LUCIFERASE INFECTION ASSAY - IC50) came out at 1.21 µM.
With `COc1ccc(NS(=O)(=O)c2cc(NC(=O)c3ccsc3)ccc2Cl)cc1`, the IC90 came out at 0.419 µM. In addition, the IC50 (HEPG2TOX_HILL_SLOPE 1.65, HEPG2TOX_R_SQUARED 0.932, PBLUC_HILL_SLOPE 10.6, PBLUC_R_SQUARED 0.586, read-out: LUCIFERASE INFECTION ASSAY - IC50) is 0.34 µM.
For `O=C(Nc1nonc1-c1ccc(Cl)cc1)C(c1ccccc1)c1ccccc1`, the IC90 came out at 8.22 µM. For the same compound, where the note is “FFLUC_HILL_SLOPE 3.18, FFLUC_R_SQUARED 0.644, PBLUC_HILL_SLOPE 3.44, PBLUC_R_SQUARED 0.465, read-out: LUCIFERASE INFECTION ASSAY - IC50”, the half-inhibitory concentration (IC50) stood at 4.34 µM.
In the case of `O=C(c1nn(-c2ccccc2)c(=O)c2ccccc12)N(CCCN1CCOCC1)Cc1cccs1`, the IC90 is above 10 µM. In addition, for the setting “PBLUC_HILL_SLOPE 4.06, PBLUC_R_SQUARED 0.124, read-out: LUCIFERASE INFECTION ASSAY - IC50”, the IC50 came out at 8.65 µM.
`COc1ccc(S(=O)(=O)N2CCN(C(=O)c3sc4nc5n(c(=O)c4c3C)CCCCC5)CC2)cc1`: the IC90 is above 10 µM. Also, the half-inhibitory concentration (IC50) under setting [1] is above 10 µM.
`O=C(NCc1ccc(Cn2ccnc2)cc1)c1csc(-c2cccs2)n1`: the IC90 was above 10 µM. Also, the half-maximal inhibitory concentration (IC50) (PBLUC_HILL_SLOPE 1.64, PBLUC_R_SQUARED 0.565, read-out: LUCIFERASE INFECTION ASSAY - IC50) worked out at 6.98 µM.
Turning to `CN1CCN(/N=C/c2c(-c3ccccc3)n(-c3ccccc3)c3ccccc23)CC1`, the IC90 is above 10 µM. Further, for the setting “PBLUC_HILL_SLOPE 15.1, PBLUC_R_SQUARED 0.218, read-out: LUCIFERASE INFECTION ASSAY - IC50”, the IC50 came out at 9.13 µM.
For `CC(C)(C)c1ccc(-n2nnnc2-c2ccccc2)cc1`, the IC90 was above 11.9 µM. Moreover, the IC50 (PBLUC_HILL_SLOPE 1.83, PBLUC_R_SQUARED 0.134, read-out: LUCIFERASE INFECTION ASSAY - IC50) was found to be 6.62 µM.
In the case of `COc1cncc(-c2cc(Nc3ccc(Oc4ccccc4)cc3)ncn2)c1`, the IC90 is above 8.91 µM. In addition, the IC50 (PBLUC_HILL_SLOPE 10.3, PBLUC_R_SQUARED 0.501, read-out: LUCIFERASE INFECTION ASSAY - IC50) is 7.76 µM.
For the compound `Cn1c(Nc2ccccc2)nc2cnc(-c3ccc(F)c(Cl)c3)cc21`, the 90% effect concentration (IC90) was above 10 µM. Also, where the note is “PBLUC_HILL_SLOPE 3.09, PBLUC_R_SQUARED 0.397, read-out: LUCIFERASE INFECTION ASSAY - IC50”, the IC50 came out at 7.42 µM.
Take `CC(=O)Nc1nc(C(=O)Nc2nc3ccccc3n2C2CCCCC2)cs1`: the 90% effect concentration (IC90) was above 10 µM. For the same compound, the IC50 under setting [1] was above 10 µM.
As for `Cc1onc(-c2ccc(Cl)cc2)c1-c1ccnc(SCC(=O)Nc2ccc(Cl)cc2)n1`, the IC90 is above 7 µM. In addition, the concentration for half-maximal inhibition (IC50) (FFLUC_HILL_SLOPE 3.87, FFLUC_R_SQUARED 0.391, HEPG2TOX_HILL_SLOPE 3.01, HEPG2TOX_R_SQUARED 0.647, PBLUC_HILL_SLOPE 15.9, PBLUC_R_SQUARED 0.148, read-out: LUCIFERASE INFECTION ASSAY - IC50) was 6.77 µM.
In the case of `CCOC(=O)CCCNC(=O)COC(=O)c1cc(-c2ccco2)nc2ccccc12`, the IC90 is above 10 µM. Further, the IC50 under setting [1] was above 10 µM.
As to `COc1cc(OC)c(C2=CCN(c3cc(=O)n4ccccc4n3)CC2)c(OC)c1`, the 90% effect concentration (IC90) is above 10 µM. For the same compound, the IC50 (PBLUC_HILL_SLOPE 11.4, PBLUC_R_SQUARED 0.492, read-out: LUCIFERASE INFECTION ASSAY - IC50) was found to be 9.03 µM.
Consider `CC1CC(=O)N(CC(=O)Nc2ccc(C(F)(F)F)cc2)N=C1c1ccc(Cl)cc1` (stereo unspecified), for which the IC90 is above 10 µM. For the setting “FFLUC_HILL_SLOPE 1.68, FFLUC_R_SQUARED 0.0802, HEPG2TOX_HILL_SLOPE 1.48, HEPG2TOX_R_SQUARED 0.946, read-out: LUCIFERASE INFECTION ASSAY - IC50”, the concentration for half-maximal inhibition (IC50) was above 10 µM.
Consider `Cc1[nH]c(=O)[nH]c(=O)c1C(=O)/C=C/c1cn(-c2ccccc2)nc1-c1cc2ccccc2o1`, for which the IC90 is above 10 µM. Under setting [1], the IC50 was above 10 µM.
On to `N=C1N/C(=N/NC(=O)c2ccc(CN3C(=O)c4cccc5cccc3c45)cc2)c2ccccc21`, for which the IC90 was above 10 µM. Further, the IC50 (HEPG2TOX_HILL_SLOPE 8, HEPG2TOX_R_SQUARED 0.371, PBLUC_HILL_SLOPE 2.14, PBLUC_R_SQUARED 0.479, read-out: LUCIFERASE INFECTION ASSAY - IC50) was determined as 4.48 µM.
As for `O=c1c2ccccc2nc(SCc2cn3cc(Cl)ccc3n2)n1-c1ccccc1F`, the IC90 was above 10 µM. Further, the IC50 (PBLUC_HILL_SLOPE 16.9, PBLUC_R_SQUARED 0.0163, read-out: LUCIFERASE INFECTION ASSAY - IC50) amounted to 8.93 µM.
With `COc1ccccc1CNc1nc(NCc2ccccc2SC)c2sccc2n1`, the IC90 is above 7.81 µM. Further, under setting [1], the IC50 is above 7.81 µM.
Take `Oc1c(C(c2ccc(Cl)cc2)c2cc(Cl)c3cccnc3c2O)cc(Cl)c2cccnc12`: the IC90 amounted to 2.32 µM. Also, the IC50 (FFLUC_HILL_SLOPE 4.28, FFLUC_R_SQUARED 0.979, HEPG2TOX_HILL_SLOPE 0.496, HEPG2TOX_R_SQUARED 0.799, PBLUC_HILL_SLOPE 1.82, PBLUC_R_SQUARED 0.848, read-out: LUCIFERASE INFECTION ASSAY - IC50) is 0.693 µM.
On to `Cc1cc(C(=O)CN(C)Cc2nc(=O)c3ccccc3[nH]2)c(C)n1Cc1ccc(F)cc1`, for which the IC90 is above 10 µM. The IC50 (PBLUC_HILL_SLOPE 13.1, PBLUC_R_SQUARED 0.161, read-out: LUCIFERASE INFECTION ASSAY - IC50) amounted to 8.98 µM.

(Values after ChEMBL document CHEMBL4483862, “Open-source discovery of chemical leads for next-generation chemoprotective antimalarials” (2018).)
